Tests used:
[1] = target: LXRβ (Homo sapiens (Human), UniProt P55055); assay: In vitro assay LXRβ: PathHunter NHR CHO cells, LXRβ / Steroid Receptor Co-activator Peptide enzyme fragment complementation; type: cell-based; settings: PathHunter NHR CHO cells, full-length human LXRβ and SRCP, chemiluminescent signal; read-out: LXRβ PPI
Procedure, shortened: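 Enzyme fragment complementation read-out: CHO cells stably expressing ProLink-tagged full-length human LXRβ plus nuclear enzyme acceptor–SRCP fusion, seeded and held overnight at 37° C. Medium with charcoal-dextran filtered serum; final vehicle 1%. Chemiluminescence measured after signal generation.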

[2] = target: SREBP-2 (Homo sapiens (Human), UniProt Q12772); assay: In vitro assay SREBP-2: PathHunter U2OS SREBP-2 Nuclear Translocation Cell Line, U18666A-stimulated; type: cell-based; settings: PathHunter U2OS SREBP-2 nuclear translocation cells, U18666A 10 μM, overnight (16 hours)

LXRβ, sequence (P55055 whole entry, the tested form may be a part): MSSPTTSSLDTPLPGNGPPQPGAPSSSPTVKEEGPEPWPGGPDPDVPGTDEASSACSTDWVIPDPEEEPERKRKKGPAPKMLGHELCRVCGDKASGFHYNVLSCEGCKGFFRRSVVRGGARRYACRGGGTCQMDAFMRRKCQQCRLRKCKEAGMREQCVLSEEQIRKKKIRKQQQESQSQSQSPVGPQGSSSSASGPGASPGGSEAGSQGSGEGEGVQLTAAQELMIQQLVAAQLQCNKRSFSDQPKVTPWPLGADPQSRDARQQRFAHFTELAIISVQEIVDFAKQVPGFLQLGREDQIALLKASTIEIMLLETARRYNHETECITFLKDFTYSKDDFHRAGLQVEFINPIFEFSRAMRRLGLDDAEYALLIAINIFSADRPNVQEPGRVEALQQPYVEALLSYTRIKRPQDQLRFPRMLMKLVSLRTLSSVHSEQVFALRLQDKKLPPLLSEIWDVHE

SMILES	EC50 [1] [nM]	IC50 [2] [nM]
C[C@H](CC(=O)N1CCN(c2ccncn2)CC1)[C@H]1CC[C@H]2[C@@H]3CC=C4C[C@@H](O)CC[C@]4(C)[C@H]3CC[C@]12C [Example 595, (R)-3-((3S,8S,9S,10R,13R,14S,17R)-3-hydroxy-10,13-dimethyl-2,3,4,7,8,9,10,11,12,13,14,15,16,17-tetradecahydro-1H-cyclopenta[a]phenanthren-17-yl)-1-(4-(pyrimidin-4-yl)piperazin-1-yl)butan-1-one]	> 10000	1000 to 10000
C[C@H](COC(=O)N1CCN(C(=O)c2cnn(C)c2)CC1)[C@H]1CC[C@H]2[C@@H]3CC=C4C[C@@H](O)CC[C@]4(C)[C@H]3CC[C@]12C [Example 596, (S)-2-((3S,8S,9S,10R,13S,14S,17R)-3-hydroxy-10,13-dimethyl-2,3,4,7,8,9,10,11,12,13,14,15,16,17-tetradecahydro-1H-cyclopenta[a]phenanthren-17-yl)propyl 4-(1-methyl-1H-pyrazole-4-carbonyl)piperazine-1-carboxylate]	> 10000	< 250
C[C@H](COC(=O)N1CCN(c2ccncc2)CC1)[C@H]1CC[C@H]2[C@@H]3CC=C4C[C@@H](O)CC[C@]4(C)[C@H]3CC[C@]12C [Example 597, (2S)-2-[(1R,3aS,3bS,7S,9aR,9bS,11aS)-7-hydroxy-9a,11a-dimethyl-1H,2H,3H,3aH,3bH,4H,6H,7H,8H,9H,9aH,9bH,10H,11H,11aH-cyclopenta[a]phenanthren-1-yl]propyl 4-(pyridin-4-yl)piperazine-1-carboxylate]	> 10000	< 250
COC(=O)N1CCN(C(=O)[C@@H](C)[C@H]2CC[C@H]3[C@@H]4CC=C5C[C@@H](O)CC[C@]5(C)[C@H]4CC[C@]23C)CC1 [Example 598, methyl 4-((S)-2-((3S,8S,9S,10R,13S,14S,17R)-3-hydroxy-10,13-dimethyl-2,3,4,7,8,9,10,11,12,13,14,15,16,17-tetradecahydro-1H-cyclopenta[a]phenanthren-17-yl)propanoyl)piperazine-1-carboxylate]	> 10000	1000 to 10000
C[C@H](C(=O)NCc1ccncc1)[C@H]1CC[C@H]2[C@@H]3CC=C4C[C@@H](O)CC[C@]4(C)[C@H]3CC[C@]12C [Example 599, (S)-2-((3S,8S,9S,10R,13S,14S,17R)-3-hydroxy-10,13-dimethyl-2,3,4,7,8,9,10,11,12,13,14,15,16,17-tetradecahydro-1H-cyclopenta[a]phenanthren-17-yl)-N-(pyridin-4-ylmethyl)propanamide]	> 10000	1000 to 10000
C[C@H](C(=O)Nc1ccncc1)[C@H]1CC[C@H]2[C@@H]3CC=C4C[C@@H](O)CC[C@]4(C)[C@H]3CC[C@]12C [Example 600, (S)-2-((3S,8S,9S,10R,13S,14S,17R)-3-hydroxy-10,13-dimethyl-2,3,4,7,8,9,10,11,12,13,14,15,16,17-tetradecahydro-1H-cyclopenta[a]phenanthren-17-yl)-N-(pyridin-4-yl)propanamide]	> 10000	1000 to 10000
COc1ccc(CC[C@@H](C)[C@H]2CC[C@H]3[C@@H]4CC=C5C[C@@H](O)CC[C@]5(C)[C@H]4CC[C@]23C)nc1 [Example 601, (1R,3aS,3bS,7S,9aR,9bS,11aR)-1-[(2R)-4-(5-methoxypyridin-2-yl)butan-2-yl]-9a,11a-dimethyl-1H,2H,3H,3aH,3bH,4H,6H,7H,8H,9H,9aH,9bH,10H,11H,11aH-cyclopenta[a]phenanthren-7-ol]	1000 to 10000	250 to 1000
COc1ccnc(CC[C@@H](C)[C@H]2CC[C@H]3[C@@H]4CC=C5C[C@@H](O)CC[C@]5(C)[C@H]4CC[C@]23C)c1 [Example 602, (3S,8S,9S,10R,13R,14S,17R)-17-((R)-4-(4-methoxypyridin-2-yl)butan-2-yl)-10,13-dim ethyl-2,3,4,7,8,9,10,11,12,13,14,15,16,17-tetradecahydro-1H-cyclopenta[a]phenanthren-3-ol]	250 to 1000	< 250
Cc1c(N2CCN(C(=O)CC[C@@H](C)[C@H]3CC[C@H]4[C@@H]5CC=C6C[C@@H](O)CC[C@]6(C)[C@H]5CC[C@]34C)CC2)cnn1C [Example 603, (R)-1-(4-(1,5-dimethyl-1H-pyrazol-4-yl)piperazin-1-yl)-4-((3S,8S,9S,10R,13R,14S,17R)-3-hydroxy-10,13-dimethyl-2,3,4,7,8,9,10,11,12,13,14,15,16,17-tetradecahydro-1H-cyclopenta[a]phenanthren-17-yl)pentan-1-one]	> 10000	< 250
Cc1nn(C)cc1N1CCN(C(=O)CC[C@@H](C)[C@H]2CC[C@H]3[C@@H]4CC=C5C[C@@H](O)CC[C@]5(C)[C@H]4CC[C@]23C)CC1 [Example 604, (4R)-4-[(1R,3aS,3bS,7S,9aR,9bS,11aR)-7-hydroxy-9a,11a-dimethyl-1H,2H,3H,3aH,3bH,4H,6H,7H,8H,9H,9aH,9bH,10H,11H,11aH-cyclopenta[a]phenanthren-1-yl]-1-[4-(1,3-dimethyl-1H-pyrazol-4-yl)piperazin-1-yl]pentan-1-one]	> 10000	< 250
C[C@H](CCC(=O)N1CCN(c2ncnn2C)CC1)[C@H]1CC[C@H]2[C@@H]3CC=C4C[C@@H](O)CC[C@]4(C)[C@H]3CC[C@]12C [Example 605, (R)-4-((3S,8S,9S,10R,13R,14S,17R)-3-hydroxy-10,13-dimethyl-2,3,4,7,8,9,10,11,12,13,14,15,16,17-tetradecahydro-1H-cyclopenta[a]phenanthren-17-yl)-1-(4-(1-methyl-1H-1,2,4-triazol-5-yl)piperazin-1-yl)pentan-1-one]	> 10000	< 250
C[C@H](CCC(=O)N1CCN(c2nnnn2C)CC1)[C@H]1CC[C@H]2[C@@H]3CC=C4C[C@@H](O)CC[C@]4(C)[C@H]3CC[C@]12C [Example 606, (R)-4-((3S,8S,9S,10R,13R,14S,17R)-3-hydroxy-10,13-dimethyl-2,3,4,7,8,9,10,11,12,13,14,15,16,17-tetradecahydro-1H-cyclopenta[a]phenanthren-17-yl)-1-(4-(1-methyl-1H-tetrazol-5-yl)piperazin-1-yl)pentan-1-one]	> 10000	< 250
Cc1ncsc1N1CCN(C(=O)CC[C@@H](C)[C@H]2CC[C@H]3[C@@H]4CC=C5C[C@@H](O)CC[C@]5(C)[C@H]4CC[C@]23C)CC1 [Example 607, (R)-4-((3S,8S,9S,10R,13R,14S,17R)-3-hydroxy-10,13-dimethyl-2,3,4,7,8,9,10,11,12,13,14,15,16,17-tetradecahydro-1H-cyclopenta[a]phenanthren-17-yl)-1-(4-(4-methylthiazol-5-yl)piperazin-1-yl)pentan-1-one]	> 10000	< 250
C[C@H](CCC(=O)N1CCN(c2ccnn2C)[C@@H](C)C1)[C@H]1CC[C@H]2[C@@H]3CC=C4C[C@@H](O)CC[C@]4(C)[C@H]3CC[C@]12C [Example 608, (R)-4-((3S,8S,9S,10R,13R,14S,17R)-3-hydroxy-10,13-dimethyl-2,3,4,7,8,9,10,11,12,13,14,15,16,17-tetradecahydro-1H-cyclopenta[a]phenanthren-17-yl)-1-((S)-3-methyl-4-(1-methyl-1H-pyrazol-5-yl)piperazin-1-yl)pentan-1-one]	> 10000	< 250
C[C@H](CCC(=O)N1CCN(c2ccnn2C)C[C@@H]1C)[C@H]1CC[C@H]2[C@@H]3CC=C4C[C@@H](O)CC[C@]4(C)[C@H]3CC[C@]12C [Example 609, (R)-4-((3S,8S,9S,10R,13R,14S,17R)-3-hydroxy-10,13-dimethyl-2,3,4,7,8,9,10,11,12,13,14,15,16,17-tetradecahydro-1H-cyclopenta[a]phenanthren-17-yl)-1-((S)-2-methyl-4-(1-methyl-1H-pyrazol-5-yl)piperazin-1-yl)pentan-1-one]	> 10000	< 250
COc1nccnc1N1CCN(C(=O)CC[C@@H](C)[C@H]2CC[C@H]3[C@@H]4CC=C5C[C@@H](O)CC[C@]5(C)[C@H]4CC[C@]23C)CC1 [Example 610, (R)-4-((3S,8S,9S,10R,13R,14S,17R)-3-hydroxy-10,13-dimethyl-2,3,4,7,8,9,10,11,12,13,14,15,16,17-tetradecahydro-1H-cyclopenta[a]phenanthren-17-yl)-1-(4-(3-methoxypyrazin-2-yl)piperazin-1-yl)pentan-1-one]	> 10000	< 250
COc1ccncc1N1CCN(C(=O)CC[C@@H](C)[C@H]2CC[C@H]3[C@@H]4CC=C5C[C@@H](O)CC[C@]5(C)[C@H]4CC[C@]23C)CC1 [Example 611, (R)-4-((3S,8S,9S,10R,13R,14S,17R)-3-hydroxy-10,13-dimethyl-2,3,4,7,8,9,10,11,12,13,14,15,16,17-tetradecahydro-1H-cyclopenta[a]phenanthren-17-yl)-1-(4-(4-methoxypyridin-3-yl)piperazin-1-yl)pentan-1-one]	> 10000	< 250
COc1ncccc1N1CCN(C(=O)CC[C@@H](C)[C@H]2CC[C@H]3[C@@H]4CC=C5C[C@@H](O)CC[C@]5(C)[C@H]4CC[C@]23C)CC1 [Example 612, (R)-4-((3S,8S,9S,10R,13R,14S,17R)-3-hydroxy-10,13-dimethyl-2,3,4,7,8,9,10,11,12,13,14,15,16,17-tetradecahydro-1H-cyclopenta[a]phenanthren-17-yl)-1-(4-(2-methoxypyridin-3-yl)piperazin-1-yl)pentan-1-one]	> 10000	< 250
COc1cccnc1N1CCN(C(=O)CC[C@@H](C)[C@H]2CC[C@H]3[C@@H]4CC=C5C[C@@H](O)CC[C@]5(C)[C@H]4CC[C@]23C)CC1 [Example 613, (R)-4-((3S,8S,9S,10R,13R,14S,17R)-3-hydroxy-10,13-dimethyl-2,3,4,7,8,9,10,11,12,13,14,15,16,17-tetradecahydro-1H-cyclopenta[a]phenanthren-17-yl)-1-(4-(3-methoxypyridin-2-yl)piperazin-1-yl)pentan-1-one]	> 10000	< 250

Reference: patent US20230340011A1 (Asteroid Therapeutics, priority 2022, published 2023)
